In patent EP1935986B1, “Luminogenic and fluorogenic compounds and methods to detect molecules or conditions” (priority 2005, dated 2006):

How the values were obtained:
[1] = target: T1, QuantiLum Luciferase (Photinus pyralis, UniProt P08659); experiment: Scaffolds: light emission of luciferin derivatives with QuantiLum luciferase alone, + Co A, + DTT, + Co A and DTT; format: biochemical, firefly
T1 construct: purchased Promega Corporation E170
Description: The DTT, Coenzyme A, and QuantiLum stock solutions are the same as those described herein.
This solution was diluted 1:1 with water to produce an enzyme solution labeled "No addition." This solution was diluted 1:1 with 400 mM DTT, pH 8.0 to produce a solution labeled +DTT. This solution was diluted 1:1 with 4 mM Coenzyme A to produce a solution labeled + Co A. Finally, this solution was diluted 1:1 with a solution having both 4 mM Coenzyme A and 400 mM DTT to produce a solution labeled +Co A & DTT.
50 µl samples of these solutions were placed in the wells of luminometer microtiter plates, row A to row G, respeutivly. Row H of the plates was given 50 µl of water.
Reactions in these plates were initiated by addition of 50 µl of solution containing QuantiLum luciferase using a 12 channel micropipette. The solutions added to the rows were: columns 1, 5, and 9 - no addition solution; columns 2, 6, and 10 - + Co A solution; columns 3, 7, and 11 + DTT solution, and; columns 4, 8, and 12 - + Co A and DTT solution. After addition of the enzyme solution to the first row on every plate, a timer was started. After addition of the enzyme solution to the last row on each plate, the plate was sealed and read on a Veritas luminometer.

[2] = test system: thermostable luciferase (Luc 146-1H2); experiment: Residual thermostable luciferase activity after reaction with luciferin derivatives (Steady Glo); format: biochemical; details: Substrate 100
Description: (§1) This stock was used to produce enzyme stock solution having of 200 µg/ml enzyme solution in 1 mg/ml BSA, 200 mM HEPES buffer, pH 8.0, 20 mM MgCl2.
(§2) Solutions were made using a 1 M DTT solution, pH adjusted to 8.0, a 20 mM Coenzyme A solution in water (both described in examples above), a 100 mM ATP solution and water to create the following solutions: Sol'A, 100 µM ATP; Sol'B, 100 µM ATP, 4 mM Coenzyme A; Sol'n C, 100 µM ATP, 400 mM DTT, and; Sol'n D, 100 µM ATP, 4 mM Coenzyme A and 400 mM DTT.
(§3) After assembly, the reactions were initiated by addition of 25 µl of the thermostable luciferase stock solution above and mixing the tube contents. A 50 µl sample was immediately removed and placed in a luminometer tube and the light read and the tube then replaced in a tube rack at room temperature. While the light reading was being taken, a 5 µl sample of the remaining reaction (which was kept at room temperature) was diluted into 495 µl of 50 mM BisTris, pH 6.5, 1 mg/ml BSA, 1 mM EDTA prechilled to 4°C and the tube mixed and placed on ice. The light produced by the samples in the luminometer tubes were re-read at 20, 40, 60, 90 and 120 minutes post enzyme addition. Additional 5 µl samples were taken and diluted as above at 60 and 120 minutes post enzyme addition. Once all these readings and samples were taken, 50 µl of the diluted samples was mixed with 50 µl of Steady Glo in luminometer tubes, the tubes incubated 10 minutes on ice then the light produced was read on a Turner TD 20/20 luminometer.

[3] = test system: thermostable luciferase (Luc 146-1H2); experiment: Thermostable luciferase reaction with luciferin derivatives: light readings; format: biochemical; details: 100 µM each; result in words
Description: as §1, §2
The following reactions were prepared (Table 47) Table 47
as §3

[4] = Derivative Conc. 1.07, Co A + DTT
[5] = Derivative Conc. 3.13, Co A + DTT
[6] = Derivative Conc. 6.25, Co A + DTT
[7] = Derivative Conc. 12.5, Co A + DTT
[8] = Derivative Conc. 25, Co A + DTT
[9] = Derivative Conc. 50, Co A + DTT
[10] = Derivative Conc. 100, Co A + DTT

T1 sequence (P08659 whole entry): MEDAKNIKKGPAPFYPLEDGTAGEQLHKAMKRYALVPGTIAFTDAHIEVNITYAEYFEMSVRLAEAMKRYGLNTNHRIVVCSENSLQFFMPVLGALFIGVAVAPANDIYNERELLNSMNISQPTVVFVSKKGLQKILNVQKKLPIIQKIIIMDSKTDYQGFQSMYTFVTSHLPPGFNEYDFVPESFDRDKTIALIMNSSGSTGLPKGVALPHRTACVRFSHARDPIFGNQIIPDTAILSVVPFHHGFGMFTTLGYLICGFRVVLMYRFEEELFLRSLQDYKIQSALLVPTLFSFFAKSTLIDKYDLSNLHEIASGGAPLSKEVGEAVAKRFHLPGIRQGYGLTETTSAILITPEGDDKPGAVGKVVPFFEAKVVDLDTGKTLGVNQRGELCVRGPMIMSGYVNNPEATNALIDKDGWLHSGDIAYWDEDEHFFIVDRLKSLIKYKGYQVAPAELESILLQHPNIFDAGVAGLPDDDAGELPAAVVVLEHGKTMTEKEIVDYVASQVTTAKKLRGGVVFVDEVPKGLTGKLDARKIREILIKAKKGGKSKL

Structure (SMILES)	light emission values ([1]; Derivative Conc. 1.07, Alone)	light emission values ([1]; Derivative Conc. 1.07, Co A)	light emission values [1, 4]	light emission values ([1]; Derivative Conc. 1.07, DTT)	light emission values ([1]; Derivative Conc. 3.13, Alone)	light emission values ([1]; Derivative Conc. 3.13, Co A)	light emission values [1, 5]	light emission values ([1]; Derivative Conc. 3.13, DTT)	light emission values ([1]; Derivative Conc. 6.25, Alone)	light emission values ([1]; Derivative Conc. 6.25, Co A)	light emission values ([1]; Derivative Conc. 6.25, DTT)	light emission values ([1]; Derivative Conc. 12.5, Alone)	light emission values ([1]; Derivative Conc. 12.5, Co A)	light emission values [1, 7]	light emission values ([1]; Derivative Conc. 12.5, DTT)	light emission values ([1]; Derivative Conc. 25, Alone)	light emission values ([1]; Derivative Conc. 25, Co A)	light emission values [1, 8]	light emission values ([1]; Derivative Conc. 25, DTT)	light emission values ([1]; Derivative Conc. 50, Alone)	other results
O=C(O)[C@H]1CSC(c2nc3ccc(OCCO)cc3s2)=N1 [2hydroxyethoxyluciferin ether]	8807	13847	22105	24491	10769	14986	32555	36967	14686	18532	48458	19586	21636	54630	61882	27356	28679	67303	76612	38444	light emission values [1, 6]: 42815; light emission values ([1]; Derivative Conc. 50, Co A): 39320; light emission values [1, 9]: 87170; light emission values ([1]; Derivative Conc. 50, DTT): 98407; light emission values ([1]; Derivative Conc. 100, Alone): 53804; light emission values ([1]; Derivative Conc. 100, Co A): 52640; light emission values [1, 10]: 94724; light emission values ([1]; Derivative Conc. 100, DTT): 128249
COC(=O)[C@H]1CSC(c2ccc3cc(Oc4ccc(C(F)(F)F)cc4[N+](=O)[O-])ccc3n2)=N1 [GST #4]	1146	1533	1714	1102	1537	1635	2034	1458	1571	1562	1633	1692	1275	1891	1474	1413	1026	1640	1492	1598	light emission values [1, 6]: 1730; light emission values ([1]; Derivative Conc. 50, Co A): 1366; light emission values [1, 9]: 1729; light emission values ([1]; Derivative Conc. 50, DTT): 1354; light emission values ([1]; Derivative Conc. 100, Alone): 2119; light emission values ([1]; Derivative Conc. 100, Co A): 1853; light emission values [1, 10]: 1990; light emission values ([1]; Derivative Conc. 100, DTT): 1618
O=C(O)[C@H]1CSC(c2nc3ccc(OCCCl)cc3s2)=N1 [L' in-CEE]																					light values obtained upon addition of the diluted reaction samples into Steady Glo reagent ([2]; + Co A & DTT, Time Sample Taken 0 min): 1745; light values obtained upon addition of the diluted reaction samples into Steady Glo reagent ([2]; + Co A & DTT, Time Sample Taken 60 min): 1319; light values obtained upon addition of the diluted reaction samples into Steady Glo reagent ([2]; + Co A & DTT, Time Sample Taken 120 min): 1343; light values obtained upon addition of the diluted reaction samples into Steady Glo reagent ([2]; + Co A, Time Sample Taken 0 min): 1127; light values obtained upon addition of the diluted reaction samples into Steady Glo reagent ([2]; + Co A, Time Sample Taken 60 min): 1055; light values obtained upon addition of the diluted reaction samples into Steady Glo reagent ([2]; + Co A, Time Sample Taken 120 min): 770.5; light values obtained upon addition of the diluted reaction samples into Steady Glo reagent ([2]; + DTT, Time Sample Taken 0 min): 1168; light values obtained upon addition of the diluted reaction samples into Steady Glo reagent ([2]; + DTT, Time Sample Taken 60 min): 501.5; light values obtained upon addition of the diluted reaction samples into Steady Glo reagent ([2]; + DTT, Time Sample Taken 120 min): 1478; light values obtained upon addition of the diluted reaction samples into Steady Glo reagent ([2]; Alone, Time Sample Taken 0 min): 1262; light values obtained upon addition of the diluted reaction samples into Steady Glo reagent ([2]; Alone, Time Sample Taken 60 min): 1203; light values obtained upon addition of the diluted reaction samples into Steady Glo reagent ([2]; Alone, Time Sample Taken 120 min): 1273
CCN(CC)c1ccc2nc(C3=NC(C(=O)O)CS3)sc2c1 (stereo not drawn) [diethylaminoluciferin]	656110	688887	20592	5192	2259570	1941060	93423	47727	4009797	3457051	165732	5418990	4485779	645536	682672	6763022	5623886	1067954	1304383	8176569	light emission values ([1]; Derivative Conc. 50, Co A): 7206157; light emission values [1, 9]: 1538668; light emission values ([1]; Derivative Conc. 50, DTT): 1826771; light emission values ([1]; Derivative Conc. 100, Alone): 9082149; light emission values [1, 10]: 1960750; light emission values ([1]; Derivative Conc. 100, DTT): 2180983
CN(C)c1ccc2nc(C3=NC(C(=O)O)CS3)sc2c1 (stereo not drawn) [dimethyl amino luciferin]																					brightness of luciferase reaction relative to amino luciferin [3]: about half as bright
CN(Cc1ccccc1)c1ccc2nc(C3=NC(C(=O)O)CS3)sc2c1 (stereo not drawn) [methylbenzylaminoluciferin]	25907602	12863007	2037020	929977	34516960	23501282	9404429	8088743	43052788	35730272	21756222	50528576	50418220	30367190	36663612	61572912	63598896	42613860	50632712	73867336	light emission values [1, 6]: 19738584; light emission values ([1]; Derivative Conc. 50, Co A): 78390592; light emission values [1, 9]: 47965140; light emission values ([1]; Derivative Conc. 50, DTT): 54238960; light emission values ([1]; Derivative Conc. 100, Alone): 85579872; light emission values ([1]; Derivative Conc. 100, Co A): 89117784; light emission values [1, 10]: 48409604; light emission values ([1]; Derivative Conc. 100, DTT): 50806656
